This note sets out measurements from patent EP0277849A1, “Incorporation of one or more lipophilic, active principles into lipoproteins, lipoproteins obtained and pharmaceutical compositions containing them” (IRE-CELLTARG S.A., priority 1987, dated 1988).

A short description of series [1]: Stability of reconstituted LDL in presence of plasma (KBr gradient fractionation). Format: in vitro ADME. The following applies: 1 ml de plasma humain, trois heures à 37° C. As for the experimental part:
Dans un milieu biologique aussi complexe que le plasma, de nombreux constituants peuvent, à priori, inte) ragir avec les LDL rec. CT040013 et provoquer leur déstabilisation ou entraîner une libération du principe actif incorporé. Aussi, une première étude a été entreprise pour essayerde caractériser le comportement des LDL rec. CT040013 lorsque ces dernières sont mises en présence de plasma.
Deux préparations ont été testées : les LDL rec. O.CHOL [^14C] et les LDL rec" CT040013. 500 µl de ces différentes préparations sont incubées avec 1 ml de plasma humain pendant trois heures à 37° C. Au terme de cette incubation, les échantillons sont fractionnés par ultracentrifugation sur gradient discontinu en KBr. Par aspiration, on récupère les fractions correspondantes aux différentes densités, et sur chacune de celle-ci, le cholestérol, les phospholipides, l'oléate de cholestérol [^14C] sont dosés (figure 15). Le profil en cholestérol total et en phospholipides est identique dans les deux gradients. On y distingue trois pics correspondants aux trois classes de lipoprotéines, par ordre décroissant de densité : HDL, LDL, et VLDL.

A further series concerns macrophages J77468. The experiment in a line: Toxicity for J77468 macrophages (MTT reduction). Format: cell-based, murine. The following applies: for % de viabilité cellulaire*: 18 h, MTT. As for the experimental part:
La lignée continue de macrophages J77468 d'origine murine provient d'un clonage de la souche J774 ATCC, et est cultivée en milieu RPMI 1640 additionné de glutamine 2 mM, 10% de sérum de veau foetal (décomplémenté 60 min. à 56°) et de 10 mM Hepes (pH 7.2). Une suspension de 5 10^6 cellules/ml sont infectées avec une culture de Candida tropicalis (5 10^5 levures/ml) provenant d'une culture de nuit dans de la casitone. Le milieu d'infection utilisé est du RPMI contenant 2 % de sérum de veau nouveau-né et 10 mM Hepes (pH 7.2).
La viabilité des macrophages J77468 cultivés dans du milieu contenant l'agent antifongique encapsulé ou non dans les LDL figure au Tableau 5. K et K01 sont toxiques aux concentrations nécessaires pour réduire de 50 % l'infection intracellulaire (C1250) contrairement au LDL-K01 pour lequel aucune toxicité n'a pu être détectée.

Series [2] in a line: Incorporation of antifungal agent into LDL by NaDoc dissociation-reconstitution. The following applies: 1,6 mg LDL, 482 µg of agent, dialysis. Format: physicochemical. As for the experimental part:
On ajoute à 1,6 mg de LDL préalablement dialysées contre le tampon C, 10 mg de NaDoc solide et on laisse réagir 30 minutes à température ambiante. On ajoute à la préparation 2,8 ml d'une solution NaDoc 20 mM, Na2COs 50 mM, NaCi 50 mM, pH 10 contenant 482 µg de CT4000A ou 482 µg de CT040013. Les échantillons sont dialysés à 4° C contre trois fois 1 litre de tampon B.
Le pourcentage de récupération en LDL, en CT040013 et en NaDoc est déterminé au terme du processus de reconstitution (figure 13).
Il est également possible de rapporter la masse de substance incorporée par mole de LDL. Les résultats obtenus pour le CT04000A et la CT040013 sont respectivement de 0,4 et de 208 moles incorporés par mole de LDL.

Regarding `CCCCCCCC/C=C\CCCCCCCC(=O)N1CCN(c2ccc(OC[C@H]3CO[C@](Cn4ccnc4)(c4ccc(Cl)cc4Cl)O3)cc2)CC1` [KO1], in series [1], the “association à l'albumine” value is on record as “il n'a pas été possible de mettre en évidence une association”. In series [1], the “relarguage / redistribution de la molécule incorporée en présence de plasma” value is “n'est pas pris en charge par ces protéines de transfert”. Also, in the series on macrophages J77468, the “toxicité aux concentrations nécessaires pour réduire de 50 % l'infection intracellulaire” value was “toxiques”. For the same compound, the “% de viabilité cellulaire*” value is given as 67,72% with macrophages J77468 (Concentration 0,78 µM); 67,72% in the series with macrophages J77468 (Concentration 1,56 µM); 67,36% in the series on macrophages J77468 (Concentration 3,13 µM); 60,70% in the series with macrophages J77468 (Concentration 6,25 µM); 69,47% in the series on macrophages J77468 (Concentration 12,50 µM); 67,71% with macrophages J77468 (Concentration 25,00 µM). Further, the “% de viabilité cellulaire*” value with macrophages J77468 (Concentration 50,00 µM) is listed as 71,22%; in the series on macrophages J77468 (Concentration 100,00 µM, versus untreated control), 38,94%. Moreover, the “moles incorporés par mole de LDL” value in series [2] is on record as 208 moles incorporés par mole de LDL.
